For one assay, the target named is T1, human CCL8-647 (Homo sapiens, UniProt P80075).
T1 construct: purchased Almac (UK)
T1 sequence (P80075 24-99): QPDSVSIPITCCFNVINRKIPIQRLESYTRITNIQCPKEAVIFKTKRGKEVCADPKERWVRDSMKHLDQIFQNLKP
In words: Fluorescent chemokine binding to THP-1 cells (flow cytometry). It counts as cell-based. How it is done:
P672_PEP_SCRAM (C-terminally amidated)=[…] FIG. 16(A). […] 60 μM (+) P672_PEP or P672_PEP_SCRAM were incubated with CCL8-647 (2.5 nM) for half an hour at 37° C. prior to adding to THP-1 cells and incubating everything together for a further half an hour at 37° C. Cells were then analysed using fluorescence assisted cell sorting (10,000 cells analysed) and MFI recorded. Experiment carried out in triplicate where each data point is the average of one experiment carried out in technical triplicate. Mean with SEM shown and statistical significance was determined using one-way ANOVA with Sidak's correction for multiple comparisons using Graph Pad Prism 6. ****=P<0.00005, ns=not significant.
Data are shown as mean of two technical replicates. […] Curves were fitted with 4 parameters to estimate IC50.
Fluorescent chemokine (conjugated to AlexaFluor-647) binding to THP-1 cells results in an increase in the cellular fluorescence intensity, which is quantitatively measured using flow cytometry.
Fluorescent Chemokine/Receptor Blocking Assay CCL8-647 (2.5 nM, final) or […] (1.2 nM, final) was incubated for 30 minutes with varying doses of peptide (0-100 μM, final concentration) in 50 μL assay buffer (RPMI-1640+L-glutamine (4 mM)+10% heat treated fetal bovine serum+0.2% DMSO) at 37° C. […]

Another assay deals with T2, CCL8_HUMAN (Homo sapiens, UniProt P80075).
T2 sequence (P80075 24-99): T1 sequence (P80075 24-99)
In words: Neutralisation of chemokine induced THP-1 cell migration. It counts as cell-based. How it is done: Table 1. Tick CKBPs described in PCT/GB2017/050563 and [17]. Tick peptide sequences isolated in yeast surface display fluorescent-activated cell sorting (FACS) screens using a labelled chemokine. Identity with Evasin-1, 4 or 3 was calculated using BLAST. Abbreviations: IXORI—Ixodes ricinus, RHISA—Rhipicephalus sanguineus, AMBMA—Amblyomma maculatum, AMBPA—Amblyomma parvum, AMBTR—Amblyomma triste, AMBAM—Amblyomma americanum, AMBCA—Amblyomma cajennense, RHIPU—Rhipicephalus pulchellus. Table 2A-C. Binding characteristics of tick CKBPs previously disclosed (PCT/GB2017/050563 and [17]). All members of the human chemokine family[164] are listed in column 1. Binding to human chemokines was determined for 14 tick CKBPs using biolayer interferometry (BLI) with calculated Kd shown as Molar (Moles/Litre). Binding data for 17 other novel tick CKBPs was assayed using yeast surface display[17,166],with positive binding results shown as “YES”. For biolayer interferometry, His-tagged purified tick CKBP was bound to a Ni-NINTA sensor on an OctetRed® 384 system, and then binding to each chemokine listed (with the exception of CCL25, CCL26, CXCL16, CXCL17, CXCL4L1, XCL2) was assayed in a cross-binding screen at a chemokine concentration of 300 nM as described. For those chemokines showing binding to a tick CKBP in the cross-binding screen, binding assays were repeated using different doses of chemokine. Association, equilibrium and dissociation data were analysed using Octet software to create corresponding fitted curves, and used to calculate Kd. For yeast surface display, (YSD) background fluorescence was controlled for by using either an empty vector or by omitting the chemokine (i.e. using streptavidin-Alexa647 alone). An arbitrary threshold of >3 fold over background mean fluorescence intensity was chosen to describe confirmed re-tests. Where binding was detected data are indicated as “YES”. […] For yeast surface display data, empty cells represent chemokines that were not tested. Binding data published in relation to previously described tick CKBPs (Evasins-1, 4 and 3) is also shown for comparison in each of FIGS. 2A-C, with the relevant data obtained from publications: [20-22,32]. Table 3: Neutralisation of human chemokines by tick CKBPs previously disclosed (PCT/GB2017/050563 and [17]). Neutralising activity was determined using a quantitative THP1 cell migration assay in a 96-well Boyden chamber with chemokine in the bottom chamber as described. Cells migrating through to the bottom chamber at 4 hours were counted using flow cytometry in a 96 well plate format. IC50 for neutralisation was determined at the chemokine EC80 dose as determined using a range of tick CKBP concentrations. Data was analysed using GraphPad Prism to determine IC50, which is shown as Molar (Moles/Litre). Empty cells represent experiments not done. Table 4—Other previously described tick CKBPs. Tick CKBPs that were also described in PCT/GB2017/050563 and Singh et al. are indicated in “Notes”. Table 5.—Novel tick CKBPs of the invention. Table 6. […] The peptide sequence prefix indicates the identity, and suffix indicate the tick species as follows: AMBCA, Amblyomma cajennense and IXORI, Ixodes ricinus. […] Individual yeast clones recovered from the library were re-tested using a FACS (fluorescence activated cell sorting), experiment. The binding of the peptide to the chemokine was assayed by measuring the percent (%), of yeast cells expressing the given peptide that exceeded a background threshold set by measuring the fluorescence of the yeast library pool treated with streptavidin-[…] alone. When more than one independent yeast clone was isolated for a given peptide-chemokine combination, the mean percent shift was calculated and reported in column 3.

Another assay deals with T3, CCL8 (Homo sapiens, UniProt P80075).
T3 construct: SUMO (in-house protein only) (cleaved yes); made in house; host or cells: Escherichia coli RosettaGami 2 (DE3)
T3 sequence (P80075 24-99): T1 sequence (P80075 24-99)
Kind of assay: Fluorescence polarisation (anisotropy) assay. As to conditions: BK1.1FITC Ala mutants, CCL8. It counts as binding. An excerpt:
FIG. 14. Characterisation of P672_PEP-FITC by fluorescence polarisation. […] Residue C30 was mutated to A to avoid an unpaired cysteine residue. The residues corresponding to the above peptide are wholly contained within the CCL8-binding region of P672_RHIPU transferred in the hybrid evasin P672:EVA1 (SEQ ID 76, see FIG. 5). […] (SEQ ID NO: 90). FIG. 14(A). […] The curve was fitted to the two site-total and non-specific binding model in GraphPad Prism 6. Data are shown as mean and SEM of three independent experiments, with each independent experiment performed as three technical replicates. The affinity constant Kd was calculated in GraphPad Prism from the curve fit with the standard error reported.
FIG. 14(B). […] The measured fluorescence anisotropy (y-axis) of P672_PEP-FITC (50 nM) following binding to a fixed dose (1 μM)) of CCL7, CCL8, CCL18 and CXCL1 (negative control). […] Statistical significance was determined using one-way ANOVA with Sidak's correction for multiple comparisons using Graph Pad Prism 6. **=p<0.005, ****=P<0.00005, ns=not significant.
FIG. 15(C). […] In each case 100 μM (++) or […] (+) of P672_PEP was incubated with P672_PEP-FITC (50 nM)/chemokine (1 μM CCL7 and CCL18; 500 nM CCL8) and the resulting anisotropy measured. […] Experiment carried out in triplicate where each data point is the average of one experiment carried out in technical triplicate. Mean with SEM shown and statistical significance was determined using one-way ANOVA with Sidak's correction for multiple comparisons using Graph Pad Prism 6. *=p<0.05, ***=p<0.0005, ****=P<0.00005, ns=not significant.
Fluorescence polarization assays were performed using a Clariostar (BMG Tech) plate reader with the supplied FITC excitation and emission filters using 96 half area well plates (Corning). The buffer used (FP assay buffer) was 50 mM HEPES, 150 mM NaCl, 0.1% BSA, 0.002% TWEEN-20, 0.2% DMSO, pH 7.4 and the final volume in each well was 30 μL. Polarization was converted to anisotropy using the equation A=(2*P)/(3−P) where P is polarization and A is anisotropy. For each peptide tested the gain was set to 35 mP and adjusted to a well containing fluorescent peptide only. The polarization of the emitted light in the FITC emission channel was then determined. Experiments were performed as two technical and three biological replicates. Screening of P672 peptide fragments was achieved through incubation of each peptide (50 nM) with 1 μM CCL8 (Peprotech) for 30 minutes in FP assay buffer and the resulting anisotropy of the emitted light determined as above. The chemokine cross binding screen was performed by incubating 1 μM chemokine (Peprotech) with 50 nM BK1.1FITC for half an hour in FP assay buffer and the resulting anisotropy of the emitted light determined as above. […] The anisotropy was plotted as a function of CCL8 concentration and fitted to the equation: Y=Bmax*X/(KD+X)+NS*X+Background, where Y is the measured anisotropy, X is the concentration of CCL8 added, Bmax is the maximum binding, KD is the equilibrium dissociation constant, NS is the slope of the nonlinear regression and Background is the anisotropy when no CCL8 is present, in Graph Pad Prism. Displacement assays were carried out with CCL7, CCL8, and CCL18 (Peprotech, 1 μM). […] For all FP assays, the experiments were carried out as two technical and three biological replicates.

Positions of bridges follow the written chain, without caps; N, C: chain ends. Residues, ends and D or L forms follow the SMILES beside them. Chains are numbered I, II in the order given. *: point of attachment. FITC = O=C1OC2(c3ccc(O)cc3Oc3cc(O)ccc32)c2ccc(NC(=S)*)cc21

`CC(C)[C@H](NC(=O)[C@@H]1CCCN1C(=O)[C@H](CCCCN)NC(=O)[C@H](Cc1ccccc1)NC(=O)[C@H](Cc1ccccc1)NC(=O)[C@H](CC(=O)O)NC(=O)[C@H](CCC(=O)O)NC(=O)[C@H](Cc1ccc(O)cc1)NC(=O)[C@H](CC(=O)O)NC(=O)[C@H](CCC(=O)O)NC(=O)[C@H](CC(=O)O)NC(=O)[C@H](CCC(=O)O)NC(=O)[C@@H](N)Cc1ccc(O)cc1)C(=O)N[C@H](C(=O)N[C@@H](CSSC[C@H](NC(=O)[C@@H](NC(=O)[C@@H](NC(=O)[C@@H]1CCCN1C(=O)[C@H](CCCCN)NC(=O)[C@H](Cc1ccccc1)NC(=O)[C@H](Cc1ccccc1)NC(=O)[C@H](CC(=O)O)NC(=O)[C@H](CCC(=O)O)NC(=O)[C@H](Cc1ccc(O)cc1)NC(=O)[C@H](CC(=O)O)NC(=O)[C@H](CCC(=O)O)NC(=O)[C@H](CC(=O)O)NC(=O)[C@H](CCC(=O)O)NC(=O)[C@@H](N)Cc1ccc(O)cc1)C(C)C)[C@@H](C)O)C(=O)N[C@@H](Cc1ccc(O)cc1)C(=O)N[C@@H](Cc1ccccc1)C(N)=O)C(=O)N[C@@H](Cc1ccc(O)cc1)C(=O)N[C@@H](Cc1ccccc1)C(N)=O)[C@@H](C)O` [BK1.3] (I: H-YEDEDYEDFFKPVTCYF-NH2 / II: H-YEDEDYEDFFKPVTCYF-NH2; disulfide I:15-II:15): the values for the IC50 on human CCL8-647 and at CCL8_HUMAN were 47 nM and 8 nM, respectively.

For the compound `C[C@H](NC(=O)[C@@H](NC(=O)[C@H](C)NC(=O)[C@@H]1CCCN1C(=O)[C@H](CCCCN)NC(=O)[C@H](Cc1ccccc1)NC(=O)[C@H](Cc1ccccc1)NC(=O)[C@H](CC(=O)O)NC(=O)[C@H](CCC(=O)O)NC(=O)[C@H](Cc1ccc(O)cc1)NC(=O)[C@H](CC(=O)O)NC(=O)[C@H](CCC(=O)O)NC(=O)[C@H](CC(=O)O)NC(=O)[C@H](CCC(=O)O)NC(=S)Nc1ccc2c(c1)C(=O)OC21c2ccc(O)cc2Oc2cc(O)ccc21)[C@@H](C)O)C(=O)N[C@@H](Cc1ccc(O)cc1)C(=O)N[C@@H](Cc1ccccc1)C(N)=O` [V28A] ({FITC}-EDEDYEDFFKPATAYF-NH2), the “Fold change (Kd versus WT)” value at CCL8 is 3.8.

In the case of `CC(C)[C@H](NC(=O)[C@@H]1CCCN1C(=O)[C@H](CCCCN)NC(=O)[C@H](Cc1ccccc1)NC(=O)[C@H](Cc1ccccc1)NC(=O)[C@H](CC(=O)O)NC(=O)[C@H](CCC(=O)O)NC(=O)[C@H](C)NC(=O)[C@H](CC(=O)O)NC(=O)[C@H](CCC(=O)O)NC(=O)[C@H](CC(=O)O)NC(=O)[C@H](CCC(=O)O)NC(=S)Nc1ccc2c(c1)C(=O)OC21c2ccc(O)cc2Oc2cc(O)ccc21)C(=O)N[C@H](C(=O)N[C@@H](C)C(=O)N[C@@H](Cc1ccc(O)cc1)C(=O)N[C@@H](Cc1ccccc1)C(N)=O)[C@@H](C)O` [Y21A] ({FITC}-EDEDAEDFFKPVTAYF-NH2), on CCL8, the “Fold change (Kd versus WT)” value came to 4.7.

Consider `CC(C)[C@H](NC(=O)[C@@H]1CCCN1C(=O)[C@H](CCCCN)NC(=O)[C@H](Cc1ccccc1)NC(=O)[C@H](Cc1ccccc1)NC(=O)[C@H](CC(=O)O)NC(=O)[C@H](CCC(=O)O)NC(=O)[C@H](Cc1ccc(O)cc1)NC(=O)[C@H](CC(=O)O)NC(=O)[C@H](CCC(=O)O)NC(=O)[C@H](CC(=O)O)NC(=O)[C@H](CCC(=O)O)NC(=S)Nc1ccc2c(c1)C(=O)OC21c2ccc(O)cc2Oc2cc(O)ccc21)C(=O)N[C@H](C(=O)N[C@@H](C)C(=O)N[C@@H](C)C(=O)N[C@@H](Cc1ccccc1)C(N)=O)[C@@H](C)O` [Y31A] ({FITC}-EDEDYEDFFKPVTAAF-NH2), for which, on CCL8, the “Fold change (Kd versus WT)” value amounted to 3.8.

For orientation: IC50 means the midpoint of a concentration-inhibition curve.

The values are drawn from patent US20200247855A1, “THERAPY AND DIAGNOSTICS” (OXFORD UNIVERSITY INNOVATION LIMITED, priority 2017, published 2020).
